Measured values from PubChem BioAssay (NCI).
“And” between values parts separate entries of the source, which are not always exact repeats. Identical values can stand only once.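 Following 48 hours of exposure in 96-well plates, responses at five concentrations were used to interpolate endpoints linearly. At the GI50, growth is halved. TGI marks complete inhibition of growth.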

Assays:
Test in all cases: inhibition of tumour cell growth, NCI panel, 48 h
K-562 leukemia = system: K-562 leukemia
TK-10 renal = system: TK-10 renal
NCI-H460 lung = system: NCI-H460 lung
UACC-257 melanoma = system: UACC-257 melanoma
IGROV1 ovarian = system: IGROV1 ovarian
SF-295 CNS = system: SF-295 CNS
CCRF-CEM leukemia = system: CCRF-CEM leukemia
SNB-19 CNS = system: SNB-19 CNS
SK-MEL-28 melanoma = system: SK-MEL-28 melanoma
HCT-116 colon = system: HCT-116 colon

`COc1cc(/C=C2\C(=O)Nc3ccc(Cl)cc32)cc(OC)c1OC` was tested, and the GI50 (K-562 leukemia) was 4.44 µM, the TGI (K-562 leukemia) was over 100 µM and the GI50 (TK-10 renal) was 24 µM. It also gave a TGI (TK-10 renal) of 78.3 µM, a GI50 (NCI-H460 lung) of 24.2 µM and a TGI (NCI-H460 lung) of over 100 µM. The GI50 (UACC-257 melanoma) was 29.5 µM, the TGI (UACC-257 melanoma) was over 100 µM and the GI50 (IGROV1 ovarian) was 4.51 µM. It also gave a TGI (IGROV1 ovarian) of over 100 µM, a GI50 (SF-295 CNS) of 78.2 µM and a TGI (SF-295 CNS) of over 100 µM. The GI50 (CCRF-CEM leukemia) was 7.28 µM, the TGI (CCRF-CEM leukemia) was over 100 µM and the GI50 (SNB-19 CNS) was 24.8 µM. It also gave a TGI (SNB-19 CNS) of over 100 µM, a GI50 (SK-MEL-28 melanoma) of over 100 µM and a TGI (SK-MEL-28 melanoma) of over 100 µM.

`COc1cc(-c2n/c(=C\c3c(O)[nH]c4ccccc34)cc3c2=Nc2ccccc2-3)ccc1F` gave a GI50 (K-562 leukemia) of 5.88 µM, a TGI (K-562 leukemia) of 62.1 µM and a GI50 (TK-10 renal) of 3.89 µM. For the same compound, the TGI (TK-10 renal) was 13 µM, the GI50 (NCI-H460 lung) was 4.37 µM and the TGI (NCI-H460 lung) was 58.2 µM. The GI50 (UACC-257 melanoma) was 15 µM, the TGI (UACC-257 melanoma) was 40 µM and the GI50 (IGROV1 ovarian) was 10.3 µM. For the same compound, the TGI (IGROV1 ovarian) was 48.9 µM, the GI50 (SF-295 CNS) was 24.4 µM and the TGI (SF-295 CNS) was over 100 µM. The GI50 (CCRF-CEM leukemia) was 4.75 µM, the TGI (CCRF-CEM leukemia) was over 100 µM and the GI50 (SNB-19 CNS) was 4.94 µM. It also gave a TGI (SNB-19 CNS) of 24.3 µM, a GI50 (SK-MEL-28 melanoma) of 6.2 µM and a TGI (SK-MEL-28 melanoma) of 22.6 µM. For the same compound, the GI50 (HCT-116 colon) was 4.09 µM and the TGI (HCT-116 colon) was 21.6 µM.

For `CCOC(=O)NC(=O)c1cn(CCN(CCO)C(=O)NCCCCCCNC(=O)N(CCO)CCn2cc(C(=O)NC(=O)OCC)c(=O)[nH]c2=O)c(=O)[nH]c1=O`, the TGI (K-562 leukemia) was over 100 µM, the TGI (NCI-H460 lung) was over 100 µM and the TGI (UACC-257 melanoma) was over 100 µM. The TGI (IGROV1 ovarian) was over 100 µM, the TGI (SF-295 CNS) was over 100 µM and the TGI (CCRF-CEM leukemia) was over 100 µM. It also gave a TGI (SNB-19 CNS) of over 100 µM, a TGI (SK-MEL-28 melanoma) of over 100 µM and a TGI (HCT-116 colon) of over 100 µM.

In the case of `N#CC1(C#N)C(=O)c2ccncc2C1=O`, the TGI (K-562 leukemia) is reported as over 100 µM, the TGI (NCI-H460 lung) is reported as over 100 µM and the TGI (UACC-257 melanoma) is reported as over 100 µM. It also gave a TGI (IGROV1 ovarian) of over 100 µM, a TGI (SF-295 CNS) of over 100 µM and a TGI (CCRF-CEM leukemia) of over 100 µM. The TGI (SNB-19 CNS) was over 100 µM, the TGI (SK-MEL-28 melanoma) was over 100 µM and the TGI (HCT-116 colon) was over 100 µM.

`CCCC[n+]1ccn(-c2nc3ccccc3n2C)c1` showed a TGI (K-562 leukemia) of over 100 µM, a TGI (TK-10 renal) of over 100 µM and a TGI (NCI-H460 lung) of over 100 µM. For the same compound, the TGI (UACC-257 melanoma) was over 100 µM, the TGI (IGROV1 ovarian) was over 100 µM and the TGI (SF-295 CNS) was over 100 µM. The TGI (CCRF-CEM leukemia) was over 100 µM, the TGI (SNB-19 CNS) was over 100 µM and the TGI (HCT-116 colon) was over 100 µM.

Compound `C/C=C(\C)C(=O)OC1C2C(C)=CC(=O)C(O)C2(C)C2C3(O)OCC24C1OC(=O)C(OC(C)=O)C4C(C)C3O` (configuration not stated) has a TGI (K-562 leukemia) of 0.375 µM, a TGI (NCI-H460 lung) of 0.038 µM and a TGI (UACC-257 melanoma) of 0.0496 µM. It also gave a TGI (IGROV1 ovarian) of 0.16 µM, a TGI (SF-295 CNS) of 0.0959 µM and a TGI (CCRF-CEM leukemia) of 0.244 µM. It also gave a TGI (SK-MEL-28 melanoma) of 0.0397 µM and a TGI (HCT-116 colon) of 0.875 µM.

Work on `CN(CCO)CCC1COc2ccccc2O1` (configuration not stated) yielded a TGI (K-562 leukemia) of over 10 µM, a TGI (TK-10 renal) of over 10 µM and a TGI (NCI-H460 lung) of over 10 µM. For the same compound, the TGI (IGROV1 ovarian) was over 10 µM, the TGI (SF-295 CNS) was over 10 µM and the TGI (CCRF-CEM leukemia) was over 10 µM. The TGI (SNB-19 CNS) was over 10 µM, the TGI (SK-MEL-28 melanoma) was over 10 µM and the TGI (HCT-116 colon) was over 10 µM.

For `COC1=CC(c2ccc[nH]2)=N/C1=C\c1[nH]c(C)c(CC(=O)NCc2ccccc2)c1C`, the GI50 (TK-10 renal) was 1.75 µM, the TGI (TK-10 renal) was 3.24 µM and the GI50 (UACC-257 melanoma) was 1.72 µM. The TGI (UACC-257 melanoma) was 3.17 µM, the GI50 (SF-295 CNS) was 1.47 µM and the TGI (SF-295 CNS) was 2.89 µM.

For `O=C(N/N=C\c1ccc(N(CCCl)CCCl)cc1)c1cccnc1`, the GI50 (K-562 leukemia) was 32.2 µM, the TGI (K-562 leukemia) was over 100 µM and the GI50 (TK-10 renal) was 33.4 µM. It also gave a TGI (TK-10 renal) of over 100 µM, a GI50 (NCI-H460 lung) of 3.83 µM and a TGI (NCI-H460 lung) of over 100 µM. It also gave a GI50 (UACC-257 melanoma) of 60.6 µM, a TGI (UACC-257 melanoma) of over 100 µM and a GI50 (IGROV1 ovarian) of over 100 µM. The TGI (IGROV1 ovarian) was over 100 µM, the GI50 (SF-295 CNS) was 6.31 µM and the TGI (SF-295 CNS) was 73.2 µM. The GI50 (CCRF-CEM leukemia) was 5.91 µM, the TGI (CCRF-CEM leukemia) was over 100 µM and the GI50 (SNB-19 CNS) was 45 µM. The TGI (SNB-19 CNS) was over 100 µM, the GI50 (SK-MEL-28 melanoma) was over 100 µM and the TGI (SK-MEL-28 melanoma) was over 100 µM. It also gave a GI50 (HCT-116 colon) of 51 µM and a TGI (HCT-116 colon) of over 100 µM.

`N/C(=C\c1ccc(/C=C(\NC(=O)c2ccccc2)c2nc3c([nH]2)C(=O)c2ccccc2C3=O)cc1)c1nc2c([nH]1)C(=O)c1ccccc1C2=O` was tested, and the TGI (K-562 leukemia) was 43.5 µM, the TGI (TK-10 renal) was 51.7 µM and the TGI (NCI-H460 lung) was 36.4 µM. It also gave a TGI (UACC-257 melanoma) of 36.2 µM, a TGI (IGROV1 ovarian) of 40.3 µM and a TGI (SF-295 CNS) of 30.9 µM. The TGI (CCRF-CEM leukemia) was 57.2 µM, the TGI (SNB-19 CNS) was 28.4 µM and the TGI (SK-MEL-28 melanoma) was 31.3 µM. It also gave a TGI (HCT-116 colon) of 29.5 µM.

In the case of `COc1ccc2c(c1)C(=O)c1c-2n(CCCN=[N+]=[N-])c(=O)c2cc([N+](=O)[O-])ccc12`, the GI50 (K-562 leukemia) is reported as 0.0782 µM and 0.0653 µM, the TGI (K-562 leukemia) is reported as 16.3 µM and the GI50 (TK-10 renal) is reported as 15.2 µM. The TGI (TK-10 renal) was 37.3 µM, the TGI (NCI-H460 lung) was 0.0469 µM and the TGI (UACC-257 melanoma) was over 100 µM. For the same compound, the GI50 (SF-295 CNS) was 0.033 µM, the TGI (SF-295 CNS) was 0.222 µM and 0.529 µM and the GI50 (CCRF-CEM leukemia) was under 0.001 µM. The TGI (CCRF-CEM leukemia) was 0.0275 µM and 0.0272 µM, the GI50 (SK-MEL-28 melanoma) was 15.1 µM and the TGI (SK-MEL-28 melanoma) was over 100 µM. The TGI (HCT-116 colon) was 9.11 µM.

Compound `N#C[S-].[Ce+3].c1ccc(-c2ccccn2)nc1.c1ccc(-c2ccccn2)nc1.c1ccc(-c2ccccn2)nc1` has a GI50 (TK-10 renal) of 11 µM, a TGI (TK-10 renal) of 97.6 µM and a GI50 (NCI-H460 lung) of 13.1 µM. The TGI (NCI-H460 lung) was over 100 µM, the GI50 (UACC-257 melanoma) was 21.4 µM and the TGI (UACC-257 melanoma) was 64.1 µM. The GI50 (IGROV1 ovarian) was 24.5 µM, the TGI (IGROV1 ovarian) was 69 µM and the GI50 (SF-295 CNS) was 4.72 µM. The TGI (SF-295 CNS) was 49 µM, the GI50 (SNB-19 CNS) was 45.6 µM and the TGI (SNB-19 CNS) was over 100 µM. For the same compound, the GI50 (SK-MEL-28 melanoma) was 15.3 µM, the TGI (SK-MEL-28 melanoma) was over 100 µM and the GI50 (HCT-116 colon) was 30.5 µM. It also gave a TGI (HCT-116 colon) of over 100 µM.

`CC1=C/C(=N\NS(=O)(=O)c2ccc([N+](=O)[O-])cc2)CC(C)(C)C1` gave a TGI (K-562 leukemia) of over 100 µM, a TGI (TK-10 renal) of over 100 µM and a TGI (NCI-H460 lung) of over 100 µM. It also gave a TGI (UACC-257 melanoma) of over 100 µM, a TGI (IGROV1 ovarian) of over 100 µM and a TGI (SF-295 CNS) of over 100 µM. The TGI (CCRF-CEM leukemia) was over 100 µM, the TGI (SNB-19 CNS) was over 100 µM and the TGI (SK-MEL-28 melanoma) was over 100 µM. For the same compound, the TGI (HCT-116 colon) was over 100 µM.

For `COC(Cc1cc(C(O)(c2ccc(C(C)(C)C)cc2)c2cc(CC(OC)(c3cc(C(OC)(c4ccc(C(C)(C)C)cc4)c4ccc(C(C)(C)C)cc4)c(C)cc3C)c3cc(C(OC)(c4ccc(C(C)(C)C)cc4)c4ccc(C(C)(C)C)cc4)c(C)cc3C)c(C)cc2C)c(C)cc1C)(c1cc(C(OC)(c2ccc(C(C)(C)C)cc2)c2ccc(C(C)(C)C)cc2)c(C)cc1C)c1cc(C(OC)(c2ccc(C(C)(C)C)cc2)c2ccc(C(C)(C)C)cc2)c(C)cc1C`, the TGI (K-562 leukemia) was over 75 µM, the TGI (TK-10 renal) was over 75 µM and the TGI (NCI-H460 lung) was over 75 µM. The TGI (UACC-257 melanoma) was over 75 µM, the TGI (IGROV1 ovarian) was over 75 µM and the TGI (SF-295 CNS) was over 75 µM. The TGI (CCRF-CEM leukemia) was over 75 µM, the TGI (SNB-19 CNS) was over 75 µM and the TGI (SK-MEL-28 melanoma) was over 75 µM. It also gave a TGI (HCT-116 colon) of over 75 µM.

In the case of `COc1nc2ccc(Cl)c(C(O)c3ccccc3)c2nc1OC` (configuration not stated), the TGI (K-562 leukemia) is reported as over 100 µM, the TGI (TK-10 renal) is reported as over 100 µM and the TGI (NCI-H460 lung) is reported as over 100 µM. The TGI (UACC-257 melanoma) was 59.2 µM, the TGI (IGROV1 ovarian) was over 100 µM and the TGI (SF-295 CNS) was 44.8 µM. The TGI (CCRF-CEM leukemia) was 29.5 µM, the TGI (SNB-19 CNS) was over 100 µM and the TGI (SK-MEL-28 melanoma) was over 100 µM. It also gave a TGI (HCT-116 colon) of 32.7 µM.
